Some test systems named below: EKVX; HCT-116; HOP-92; HT-29; LOX IMVI; M14; NCI-H522; OVCAR-5; OVCAR-8; RPMI-8226; SF-268; SF-295; SNB-19; SW-620; U-251; UACC-257; KM12; SN12C; UACC-62.
Holding throughout (experiment): NCI anticancer screen, dose series, 48 h

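Briefly, cells in 96-well plates were exposed to five compound concentrations for 48 h, and endpoints were estimated by linear interpolation. GI50: concentration for 50% inhibition of growth.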 Calls of active or inactive are those of the source. No stated cut-off is given here; in the data, active = GI50 up to about 1.1 µM and inactive = higher.

Take `C/C=C/OC1C(C2COC(C)(C)O2)OC2OC(C)(C)OC21` (stereo not given): the GI50 with EKVX, in the experiment with HCT-116, in the experiment on HOP-92, with HT-29, in the experiment with LOX IMVI and with M14 was > 100 µM (inactive) throughout. The GI50 with NCI-H522, with OVCAR-5, in the experiment on OVCAR-8, in the experiment on RPMI-8226, in the experiment with SF-268 and in the experiment on SF-295 was > 100 µM (inactive) each time. Also, the GI50 in the experiment on SNB-19, in the experiment with SW-620, with U-251 and with UACC-257 was > 100 µM (inactive) in each case.

With `CC(=O)OC12c3ccccc3-c3ccccc3C1C1C(=O)OC(=O)C12` (stereo not given), the GI50 in the experiment with EKVX, with HOP-92, in the experiment with HT-29, in the experiment with KM12, in the experiment on LOX IMVI and in the experiment on M14 was > 10 µM (inactive) throughout. The GI50 in the experiment with NCI-H522, in the experiment with OVCAR-5, in the experiment with OVCAR-8, with RPMI-8226, with SF-268 and in the experiment on SF-295 was > 10 µM (inactive) throughout. Moreover, the GI50 in the experiment on SN12C, in the experiment on SNB-19, in the experiment with SW-620, in the experiment on U-251 and in the experiment on UACC-257 was > 10 µM (inactive) throughout.

In the case of `CCCCOC(=O)C(=O)C(CC(C(=O)Cc1ccccc1)c1ccccc1)C(=O)C=C(C)C` (stereo not given), the GI50 with EKVX, in the experiment with HCT-116, with HOP-92, in the experiment with HT-29, in the experiment on KM12 and with LOX IMVI was > 100 µM (inactive) each time. Also, the GI50 with M14, in the experiment on NCI-H522, in the experiment with OVCAR-5, in the experiment with OVCAR-8, in the experiment on SF-268 and in the experiment on SF-295 was > 100 µM (inactive) in each case. Also, the GI50 with SN12C, in the experiment on SNB-19, with SW-620, in the experiment on U-251, with UACC-257 and with UACC-62 was > 100 µM (inactive) each time.

With `CC(=O)N1C=Cc2c(c(C)c3c([nH]c4ccccc43)c2C)C1`, the GI50 with EKVX is 0.479 µM (active); in the experiment on HCT-116 it was 1.53 µM (inactive); in the experiment with HOP-92, 5.4 µM (inactive); in the experiment with HT-29, 4.58 µM (inactive); in the experiment with KM12 it was 2.9 µM (inactive); in the experiment on LOX IMVI it was 4.07 µM (inactive). Besides, the GI50 was 7.28 µM (inactive) in the experiment on M14; 10.4 µM (inactive) with NCI-H522; 9.25 µM (inactive) with OVCAR-5; 6.03 µM (inactive) in the experiment on OVCAR-8; 14.7 µM (inactive) in the experiment with RPMI-8226; 7.4 µM (inactive) with SF-268. Further, the GI50 in the experiment with SF-295 was 8.22 µM (inactive); in the experiment with SN12C it was 3.8 µM (inactive); with SNB-19, 10.2 µM (inactive); in the experiment on SW-620 it was 2.51 µM (inactive); in the experiment with U-251, 4.89 µM (inactive); in the experiment on UACC-257 it was 15.1 µM (inactive).

With `CCOC(=O)/C=C(/C(=O)OCC)n1cc(C)c(=O)n(Cc2cn(CCCCOC(C)=O)nn2)c1=O`, the GI50 in the experiment with EKVX is 10.7 µM (inactive); in the experiment on HCT-116, 22.7 µM (inactive); in the experiment with HOP-92, 1.21 µM (inactive); in the experiment on HT-29, 8.05 µM (inactive); with KM12 it was 15.5 µM (inactive); with LOX IMVI it was 17.7 µM (inactive). Further, the GI50 with NCI-H522 was 1.88 µM (inactive); in the experiment with OVCAR-5, 18.1 µM (inactive); in the experiment with OVCAR-8, 12.9 µM (inactive); with RPMI-8226 it was 5.13 µM (inactive); with SF-268, 17.1 µM (inactive); in the experiment with SF-295, 33.1 µM (inactive). The GI50 with SN12C is 23.6 µM (inactive); in the experiment with SNB-19, 18.8 µM (inactive); with SW-620, 3.03 µM (inactive); in the experiment with U-251, 18.5 µM (inactive); with UACC-257, 19.8 µM (inactive); with UACC-62, 14.7 µM (inactive).

Consider `COc1ccccc1/C=C1/Sc2scc(CC(=O)Nc3ccccc3)[n+]2C1=O`, for which the GI50 in the experiment with EKVX was 30.9 µM (inactive); in the experiment on HCT-116 it was 24.6 µM (inactive); in the experiment with HOP-92, 17 µM (inactive); with HT-29 it was 42 µM (inactive); in the experiment on KM12 it was 19.7 µM (inactive); in the experiment with LOX IMVI, 39 µM (inactive). Further, the GI50 with M14 is 28.4 µM (inactive); with NCI-H522, 20.3 µM (inactive); in the experiment with OVCAR-5, 47 µM (inactive); in the experiment on OVCAR-8, 31.8 µM (inactive); in the experiment with SF-268 it was 47.6 µM (inactive); with SF-295 it was 32.9 µM (inactive). For the same compound, the GI50 in the experiment with SN12C is 31.3 µM (inactive); with SNB-19, 29.1 µM (inactive); in the experiment with SW-620, 35 µM (inactive); in the experiment with U-251, 33 µM (inactive); in the experiment with UACC-257, 25.1 µM (inactive); in the experiment on UACC-62, 14.4 µM (inactive).

With `O=C(CN(C(=O)OC12CC3CC(CC(C3)C1)C2)C(=O)OC12CC3CC(CC(C3)C1)C2)Oc1ccc([N+](=O)[O-])cc1`, the GI50 in the experiment on EKVX, with HCT-116, in the experiment with HOP-92, in the experiment on HT-29, in the experiment with KM12 and in the experiment on LOX IMVI was > 100 µM (inactive) in each case. The GI50 with M14 is > 100 µM (inactive); in the experiment with NCI-H522, 59 µM (inactive); with OVCAR-5 it was > 100 µM (inactive); in the experiment with OVCAR-8, > 100 µM (inactive); with SF-268, > 100 µM (inactive); with SF-295 it was > 100 µM (inactive). The GI50 is 86.3 µM (inactive) in the experiment on SN12C; > 100 µM (inactive) in the experiment on SNB-19; 56.6 µM (inactive) in the experiment on SW-620; 69.3 µM (inactive) with U-251; > 100 µM (inactive) in the experiment with UACC-257; > 100 µM (inactive) in the experiment on UACC-62.

`CCOC(=O)Cn1c(=O)c2nc(SC)sc2n(CC)c1=S`: the GI50 in the experiment with HCT-116 is > 100 µM (inactive); with HOP-92, 82.6 µM (inactive); in the experiment on HT-29, > 100 µM (inactive); in the experiment on KM12, > 100 µM (inactive); in the experiment with LOX IMVI it was > 100 µM (inactive); in the experiment on M14 it was 5.78 µM (inactive). For the same compound, the GI50 with NCI-H522, with OVCAR-5, in the experiment with OVCAR-8, in the experiment with RPMI-8226, in the experiment on SF-268 and in the experiment with SF-295 was > 100 µM (inactive) throughout. The GI50 in the experiment with SN12C, in the experiment on SNB-19, in the experiment on SW-620, with U-251 and in the experiment on UACC-257 was > 100 µM (inactive) each time.

The record behind these values is ChEMBL document CHEMBL1201862, “PubChem BioAssay data set” (2004).
